Results reported in ChEMBL document CHEMBL5352405, “Discovery of azaspirocyclic 1H-3,4,5-Trisubstitued pyrazoles as novel G2019S-LRRK2 selective kinase inhibitors” (Eur J Med Chem, 2022).

What was measured:
[1] = in vitro; details: human, Caco-2
[2] = in vitro; details: mouse, liver microsomes

Papp A→B [1]: 8.8 ×10⁻⁶ cm/s
half-life [2]: 30 min
Structure (SMILES): Cc1[nH]nc(-c2ccncc2)c1-c1ccc(-c2cccc(S(N)(=O)=O)c2)c(C2CC2)c1
